Measured values reported in publication PMC11520566, “Discovery of pyrazole-based analogs as CDK2 inhibitors with apoptotic-inducing activity: design, synthesis and molecular dynamics study” (RSC Advances, 2024).

Tests used:
MOLT-4 = assay: NCI 60 five dose assay, Leukemia; type: cell-based, human
A549/ATCC = assay: NCI 60 five dose assay, Non-small cell lung cancer; type: cell-based, human
HT29 [1] = assay: NCI 60 five dose assay, Colon cancer; type: cell-based, human
SF-539 = assay: NCI 60 five dose assay, CNS cancer; type: cell-based, human
786-0 = assay: NCI 60 five dose assay, Renal cancer; type: cell-based, human
PC-3 = assay: NCI 60 five dose assay, Prostate cancer; type: cell-based, human
DU-145 = assay: NCI 60 five dose assay, Prostate cancer; type: cell-based, human
MCF7 = assay: NCI 60 five dose assay, Breast cancer; type: cell-based, human
CCRF-CEM = assay: NCI 60 single dose screen, Leukemia; type: cell-based, human; conditions: single dose 10 μM
Experimental: (§1) The newly synthesized pyrazoles 2a–g, 7a–d, 8a and b, 9, and 10 were submitted to the National Cancer Institute (NCI) Developmental Therapeutics Program (http://www.dtp.nci.nih.gov) for assessment of their potential antiproliferative activity against a panel of NCI 60 cancer cell lines. All compounds were approved for screening against the approved 60 cancer cell lines at a single dose of 10 μM. The human cancer cell lines were derived from 9 variant cancer types including leukemia, melanoma, lung, colon, CNS, ovarian, renal, prostate and breast cancers. The results are presented as percentage of growth inhibition (GI%) of the screened compounds against the full panel of cell lines.
(§2) Under sterile conditions, the cell lines were grown in RPMI 1640 media (Gibco, NY, USA) supplemented with 10% fetal bovine serum (Biocell, CA, USA), and […] cell/mL was used to test the growth inhibition activity of the synthesized compounds. The compounds with concentrations ranging from 0.01 to 100 μM were prepared in phosphate buffer saline. Each compound was initially solubilized in dimethyl sulfoxide (DMSO); however, each final dilution contained less than 1% DMSO. Solutions of different concentrations (0.2 mL) were pipetted into the separate well of a microtiter tray in duplicate. Cell culture (1.8 mL) containing a cell population of […] cells per mL was pipetted into each well. Controls, containing only phosphate buffer saline and DMSO at identical dilutions, were also prepared in the same manner. These cultures were incubated in a humidified incubator at 37 °C. The incubator was supplied with 5% CO2 atmosphere. After 48 h, the cells in each well were diluted 10 times with saline and counted using a Coulter counter. The counts were corrected for the dilution.[34]

RPMI-8226 = assay: NCI 60 single dose screen, Leukemia; type: cell-based, human; conditions: single dose 10 μM
Experimental: as §1, §2

UACC-257 = assay: NCI 60 single dose screen, Melanoma; type: cell-based, human; conditions: single dose 10 μM
Experimental: as §1, §2

HCT-116 = assay: NCI 60 single dose screen, Colon cancer; type: cell-based, human; conditions: single dose 10 μM
Experimental: as §1, §2

HT29 [2] = assay: NCI 60 single dose screen, Colon cancer; type: cell-based, human; conditions: single dose 10 μM
Experimental: as §1, §2

KM12 = assay: NCI 60 single dose screen, Colon cancer; type: cell-based, human; conditions: single dose 10 μM
Experimental: as §1, §2

SF-268 = assay: NCI 60 single dose screen, CNS cancer; type: cell-based, human; conditions: single dose 10 μM
Experimental: as §1
(§3) Under sterile conditions, the cell lines were grown in RPMI 1640 media (Gibco, NY, USA) supplemented with 10% fetal bovine serum (Biocell, CA, USA), and […] cell/mL was used to test the growth inhibition activity of the synthesized compounds. The compounds with concentrations ranging from 0.01 to 100 μM were prepared in phosphate buffer saline. Each compound was initially solubilized in dimethyl sulfoxide (DMSO); however, each final dilution contained less than 1% DMSO. Solutions of different concentrations (0.2 mL) were pipetted into the separate well of a microtiter tray in duplicate. […] After 48 h, the cells in each well were diluted 10 times with saline and counted using a Coulter counter. […]

SF-295 = assay: NCI 60 single dose screen, CNS cancer; type: cell-based, human; conditions: single dose 10 μM
Experimental: as §1, §3

HCT-116 cells = assay: Flow cytometric analysis of apoptosis (Annexin V-FITC/PI); type: cell-based; conditions: 1.806 μM, 48 h
Experimental: For the detection of apoptosis in the treated cells, the Annexin V-FITC-apoptosis detection kit (PN IM3546) was used, followed by flow cytometric analysis according to the manufacturer's protocol. In this assay, HCT-116 cells were allowed to grow in a […] flask until 70–80% confluence. Then, the HCT-116 cells were treated with compound 4 for 48 h, followed by washing with PBS, and suspended in binding buffer. To […] of the cell suspension, […] of annexin V-FITC solution and […] of dissolved PI were added and incubated for 15 min in the dark. Then […] of ice-cold binding buffer was added and mixed gently. The flow cytometric analysis of the percentage of apoptotic cells was performed on a COULTER® EPICS® XL™ Flow Cytometer (USA).[35]

in vitro = conditions: human
[3] = Homo sapiens, read-out: LC50 (the source's name)

CC(=NNc1ccc(S(N)(=O)=O)cc1)c1ccc(NN=C2C(=O)NN=C2Nc2ccccc2)cc1 [Compound 4, 4-(2-(1-(4-(2-(5-oxo-3-(phenylamino)-1,5-dihydro-4H-pyrazol-4-ylidene)hydrazinyl)phenyl)ethylidene)hydrazinyl)benzene sulfonamide]
GI50 (MOLT-4; Homo sapiens): 1.64 µM
CC50 (MOLT-4; [3]): 34.9 µM
Percent Growth (MOLT-4; Log10 Concentration -4.0 Molar): -69%
Percent Growth (MOLT-4; Log10 Concentration -5.0 Molar): -28%
Percent Growth (MOLT-4; Log10 Concentration -6.0 Molar): 71%
Percent Growth (MOLT-4; Log10 Concentration -7.0 Molar): 95%
Percent Growth (MOLT-4; Log10 Concentration -8.0 Molar): 96%
GI50 (A549/ATCC; Homo sapiens): 19.4 µM
CC50 (A549/ATCC; [3]): > 100 µM
Percent Growth (A549/ATCC; Log10 Concentration -4.0 Molar): 7%
Percent Growth (A549/ATCC; Log10 Concentration -5.0 Molar): 67%
Percent Growth (A549/ATCC; Log10 Concentration -6.0 Molar): 100%
Percent Growth (A549/ATCC; Log10 Concentration -7.0 Molar): 108%
Percent Growth (A549/ATCC; Log10 Concentration -8.0 Molar): 100%
GI50 (HT29 [1]; Homo sapiens, HT-29): 3.58 µM
CC50 (HT29 [1]; Homo sapiens, HT-29, read-out: LC50 (the source's name)): 34 µM
Percent Growth (HT29 [1]; Log10 Concentration -4.0 Molar): -100%
Percent Growth (HT29 [1]; Log10 Concentration -5.0 Molar): 7%
Percent Growth (HT29 [1]; Log10 Concentration -6.0 Molar): 104%
Percent Growth (HT29 [1]; Log10 Concentration -7.0 Molar): 117%
Percent Growth (HT29 [1]; Log10 Concentration -8.0 Molar): 100%
GI50 (SF-539; Homo sapiens): 1.58 µM
CC50 (SF-539; [3]): 8.56 µM
Percent Growth (SF-539; Log10 Concentration -4.0 Molar): -100%
Percent Growth (SF-539; Log10 Concentration -5.0 Molar): -59%
Percent Growth (SF-539; Log10 Concentration -6.0 Molar): 77%
Percent Growth (SF-539; Log10 Concentration -7.0 Molar): 94%
Percent Growth (SF-539; Log10 Concentration -8.0 Molar): 89%
GI50 (786-0; Homo sapiens): 2.14 µM
CC50 (786-0; [3]): 24.7 µM
Percent Growth (786-0; Log10 Concentration -4.0 Molar): -94%
Percent Growth (786-0; Log10 Concentration -5.0 Molar): -22%
Percent Growth (786-0; Log10 Concentration -6.0 Molar): 85%
Percent Growth (786-0; Log10 Concentration -7.0 Molar): 96%
Percent Growth (786-0; Log10 Concentration -8.0 Molar): 92%
GI50 (PC-3; Homo sapiens): 3.06 µM
CC50 (PC-3; [3]): 35.8 µM
Percent Growth (PC-3; Log10 Concentration -4.0 Molar): -95%
Percent Growth (PC-3; Log10 Concentration -5.0 Molar): 5%
Percent Growth (PC-3; Log10 Concentration -6.0 Molar): 92%
Percent Growth (PC-3; Log10 Concentration -7.0 Molar): 95%
Percent Growth (PC-3; Log10 Concentration -8.0 Molar): 93%
GI50 (DU-145; Homo sapiens): 3.21 µM
CC50 (DU-145; [3]): 32.2 µM
Percent Growth (DU-145; Log10 Concentration -4.0 Molar): -100%
Percent Growth (DU-145; Log10 Concentration -5.0 Molar): 2%
Percent Growth (DU-145; Log10 Concentration -6.0 Molar): 99%
Percent Growth (DU-145; Log10 Concentration -7.0 Molar): 106%
Percent Growth (DU-145; Log10 Concentration -8.0 Molar): 100%
GI50 (MCF7; Homo sapiens): 2.4 µM
CC50 (MCF7; [3]): 27.4 µM
Percent Growth (MCF7; Log10 Concentration -4.0 Molar): -97%
Percent Growth (MCF7; Log10 Concentration -5.0 Molar): -14%
Percent Growth (MCF7; Log10 Concentration -6.0 Molar): 89%
Percent Growth (MCF7; Log10 Concentration -7.0 Molar): 93%
Percent Growth (MCF7; Log10 Concentration -8.0 Molar): 93%
GI% (CCRF-CEM): 96.41%
GI% (RPMI-8226): 96.53%
GI% (UACC-257): 94.37%
GI% (HCT-116): 99.70%
GI% (HT29 [2]): 95.46%
GI% (KM12): 96.31%
GI% (SF-268): 90.67%
GI% (SF-295): 94.88%
Apoptosis, Late (HCT-116 cells; control 0.13): 15.81%
Apoptosis, Early (HCT-116 cells; control 0.35): 4.63%
Necrosis (HCT-116 cells; control 1.58): 7.21%
Apoptosis, Total (HCT-116 cells; control 2.06): 27.65%
IC50 (in vitro): 41.2 µM
